# Data: patent publication US11111247B2, “Pyrazolopyrimidine compounds and uses thereof” (Incyte Corporation, priority 2018, dated 2021)
# Read-outs that look alike come from different tables or passages of the source.
# Tests used:
# ALK2 = ALK2 (Homo sapiens (Human), UniProt Q04771); test: ALK2 Cellular Assay (phospho SMAD1 HTRF, BMP-7 stimulated HeLa cells); format: cell-based; settings: HeLa cells, 200 ng/ml BMP-7, Phospho SMAD1 (S463/S465) HTRF; read-out: ALK2 Cellular Assay PSMAD
# Experimental: HeLa cells were cultured in MEM media with 10% FBS. […] HeLa cells were plated in 96 well flat bottomed plate at 50,000 cells per well and incubated overnight. Next day, media was removed and 50 μL of fresh complete media was added. 5 μL compound was added to cells (3 μM final concentration at highest) and incubated for 60 min at 37° C. 200 ng/ml BMP-7 was added and incubated for 30 min at 37° C. After incubation, the media was removed, washed 2×PBS, and proceeded with HTRF kit according to Cisbio HTRF kit instructions for measuring the Phospho SMAD1 (S463/S465). Finally, both the donor and acceptor were added into 384 well plates and incubated at room temperature overnight and the HTRF signal was measured via Pherastar the next day.
# ALK2 (aa 147-end) = ALK2 (aa 147-end) (Homo sapiens (Human), UniProt Q04771); test: ALK2 HTRF Assay; format: biochemical
# Experimental: The enzymatic assays were conducted in white 384-well polystyrene plates in a final volume of 8 μL. The inhibitors were serially diluted in DMSO and added to the plate wells prior to addition of the other reaction components. The assays were carried out at 25° C. in the assay buffer (50 mM HEPES, pH 7.1, 10% Glycerol, 0.01% Brij50, 10 mM MgCl2, 1 mM EGTA, 5 mM DTT, and 0.01% BSA), containing 50 nM LANCE Ultra ULight™-DNA Topoisomerase 2-alpha peptide (Perkin Elmer TRF0130), and 3 uM, 100 uM or 1 mM ATP (as specified). […] The reaction was read on a PHERAstar FS plate reader (BMG Labtech). IC50 determination was performed by fitting percent control activity versus the log of the inhibitor concentration using the IDBS XLFit and GraphPad Prism 5.0 software.
# FGFR2 (UP) = FGFR2 (UP) (Homo sapiens (Human), UniProt P21802); test: FGFR Enzymatic Assay, FGFR2 un-phosphorylated
# Experimental: (§1) The inhibitor potency of the exemplified compounds was determined in an enzyme discontinuous assay that measures peptide phosphorylation using FRET measurements to detect product formation. Inhibitors were serially diluted in DMSO and a volume of 0.2 μL was transferred to the wells of a 384-well plate. For the isoforms of FGFR (−1, −2, −3 wild-type and mutant isoforms, −4) including phosphorylated (P) and un-phosphorylated (UP) proteins, a 5 μL/well volume of enzyme diluted in assay buffer (50 mM HEPES, 10 mM MgCl2, 1 mM EGTA, 0.01% Tween-20, 5 mM DTT, pH 7.5) was added to the plate and pre-incubated with inhibitor for 5 to 15 minutes at ambient temperature. Appropriate controls (enzyme blank and enzyme with no inhibitor) were included on the plate. The reaction was initiated by the addition of a 5 μL/well volume containing both biotinylated [sequence] […] The plate was allowed to equilibrate for −10 minutes at ambient temperature before scanning on a PheraStar plate reader (BMG Labtech) instrument.
# (§2) Either GraphPad prism or XLfit was used to analyze the data. The IC50 values were derived by fitting the data to a four parameter logistic equation producing a sigmoidal dose-response curve with a variable Hill coefficient. Prism equation: Y=Bottom+(Top−Bottom)/(1+10^((LogIC50−X)*Hill slope)); XLfit equation: Y=(A+((B−A)/(1+((X/C)^D)))) where X is the logarithm of inhibitor concentration and Y is the response.
# FGFR1 (UP) = FGFR1 (UP) (Homo sapiens (Human), UniProt P11362); test: FGFR Enzymatic Assay, FGFR1 un-phosphorylated
# FGFR3 (UP) = FGFR3 (UP) (Homo sapiens (Human), UniProt P22607); test: FGFR Enzymatic Assay, FGFR3 un-phosphorylated
# Experimental: as §1, §2
# FGFR2 (P) = FGFR2 (P) (Homo sapiens (Human), UniProt P21802); test: FGFR Enzymatic Assay, FGFR2 phosphorylated; settings: phosphorylated enzyme, ATP near or below Km
# Experimental: as §1, §2
# RT112 cells = test: Luminescent Viability Assay (LVA, FGFR3); format: cell-based; settings: Homo sapiens, RT-112, 72 h, 3 days, CellTiter-Glo
# Experimental: RT112 cells were purchased from ATCC (Manassas, Va.) and maintained in RPMI, 10% FBS (Gibco/Life Technologies). To measure the effect of test compounds on the viability of cells, the cells were plated with RPMI 10% FBS (5×10^3 cells/well/in 50 μL) into black 96-well Greiner polystyrene in the presence or absence of 50 μl of a concentration range of test compounds. After 3 days, 100 μl of CellTiter-Glo Reagent (Promega) was added. Luminescence was read with a TopCount (PerkinElmer). IC50 determination was performed by fitting the curve of percent inhibition versus the log of the inhibitor concentration using the GraphPad Prism 5.0 software.
# [1] = read-out: ALK2 3 μM IC50, 3 uM ATP
# [2] = read-out: ALK2 100 μM IC50, 100 uM ATP
# [3] = read-out: ALK2 1 mM IC50, 1 mM ATP
# [4] = read-out: FGFR3 (UP) IC50, un-phosphorylated enzyme, ATP near or below Km
# Chain of FGFR1 (UP) (P11362 22-822): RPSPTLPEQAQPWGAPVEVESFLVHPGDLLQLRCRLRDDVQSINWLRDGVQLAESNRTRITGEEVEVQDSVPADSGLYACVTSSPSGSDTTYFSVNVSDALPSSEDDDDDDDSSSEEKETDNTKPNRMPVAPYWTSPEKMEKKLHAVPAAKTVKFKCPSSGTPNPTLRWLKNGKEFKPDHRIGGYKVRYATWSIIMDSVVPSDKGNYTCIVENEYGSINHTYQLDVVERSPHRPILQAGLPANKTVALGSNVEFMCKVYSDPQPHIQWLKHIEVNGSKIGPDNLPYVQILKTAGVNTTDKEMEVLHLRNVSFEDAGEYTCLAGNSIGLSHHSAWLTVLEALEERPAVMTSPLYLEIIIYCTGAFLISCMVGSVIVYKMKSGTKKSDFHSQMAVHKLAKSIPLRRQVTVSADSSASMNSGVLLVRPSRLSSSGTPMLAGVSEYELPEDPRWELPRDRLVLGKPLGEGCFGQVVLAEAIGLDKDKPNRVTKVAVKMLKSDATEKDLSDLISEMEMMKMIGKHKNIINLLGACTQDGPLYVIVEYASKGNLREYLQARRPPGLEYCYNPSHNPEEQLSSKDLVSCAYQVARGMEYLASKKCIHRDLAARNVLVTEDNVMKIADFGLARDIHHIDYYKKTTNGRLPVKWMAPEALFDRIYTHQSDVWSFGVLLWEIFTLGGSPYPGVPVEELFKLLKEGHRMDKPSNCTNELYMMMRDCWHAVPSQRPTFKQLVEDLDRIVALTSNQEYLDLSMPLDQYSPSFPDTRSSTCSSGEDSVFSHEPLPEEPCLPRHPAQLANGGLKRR
# Chain of ALK2 (Q04771 21-509): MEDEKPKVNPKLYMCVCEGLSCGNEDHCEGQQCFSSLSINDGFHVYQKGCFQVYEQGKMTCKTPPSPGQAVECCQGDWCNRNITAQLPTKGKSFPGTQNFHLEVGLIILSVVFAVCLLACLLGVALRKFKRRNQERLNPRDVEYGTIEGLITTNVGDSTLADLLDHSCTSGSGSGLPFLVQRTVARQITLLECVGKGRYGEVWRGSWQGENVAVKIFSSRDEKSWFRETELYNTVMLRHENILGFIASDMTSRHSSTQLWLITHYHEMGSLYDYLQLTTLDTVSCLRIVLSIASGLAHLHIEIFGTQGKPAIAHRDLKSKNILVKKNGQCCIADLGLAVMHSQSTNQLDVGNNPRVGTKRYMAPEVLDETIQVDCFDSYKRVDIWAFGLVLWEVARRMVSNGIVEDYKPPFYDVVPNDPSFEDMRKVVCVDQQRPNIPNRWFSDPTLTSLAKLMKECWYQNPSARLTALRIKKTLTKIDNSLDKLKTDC
# Chain of ALK2 (aa 147-end) (Q04771 147-509): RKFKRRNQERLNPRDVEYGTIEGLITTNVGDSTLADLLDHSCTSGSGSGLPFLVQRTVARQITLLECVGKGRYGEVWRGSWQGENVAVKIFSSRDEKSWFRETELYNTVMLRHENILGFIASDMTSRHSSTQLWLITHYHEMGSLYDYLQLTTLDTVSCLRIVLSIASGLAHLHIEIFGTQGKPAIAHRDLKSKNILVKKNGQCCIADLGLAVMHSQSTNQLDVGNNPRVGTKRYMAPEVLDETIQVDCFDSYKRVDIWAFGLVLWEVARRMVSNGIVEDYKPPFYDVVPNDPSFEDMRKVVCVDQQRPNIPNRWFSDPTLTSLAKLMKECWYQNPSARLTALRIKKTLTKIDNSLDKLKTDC
# Chain of FGFR2 (P) (P21802 22-821): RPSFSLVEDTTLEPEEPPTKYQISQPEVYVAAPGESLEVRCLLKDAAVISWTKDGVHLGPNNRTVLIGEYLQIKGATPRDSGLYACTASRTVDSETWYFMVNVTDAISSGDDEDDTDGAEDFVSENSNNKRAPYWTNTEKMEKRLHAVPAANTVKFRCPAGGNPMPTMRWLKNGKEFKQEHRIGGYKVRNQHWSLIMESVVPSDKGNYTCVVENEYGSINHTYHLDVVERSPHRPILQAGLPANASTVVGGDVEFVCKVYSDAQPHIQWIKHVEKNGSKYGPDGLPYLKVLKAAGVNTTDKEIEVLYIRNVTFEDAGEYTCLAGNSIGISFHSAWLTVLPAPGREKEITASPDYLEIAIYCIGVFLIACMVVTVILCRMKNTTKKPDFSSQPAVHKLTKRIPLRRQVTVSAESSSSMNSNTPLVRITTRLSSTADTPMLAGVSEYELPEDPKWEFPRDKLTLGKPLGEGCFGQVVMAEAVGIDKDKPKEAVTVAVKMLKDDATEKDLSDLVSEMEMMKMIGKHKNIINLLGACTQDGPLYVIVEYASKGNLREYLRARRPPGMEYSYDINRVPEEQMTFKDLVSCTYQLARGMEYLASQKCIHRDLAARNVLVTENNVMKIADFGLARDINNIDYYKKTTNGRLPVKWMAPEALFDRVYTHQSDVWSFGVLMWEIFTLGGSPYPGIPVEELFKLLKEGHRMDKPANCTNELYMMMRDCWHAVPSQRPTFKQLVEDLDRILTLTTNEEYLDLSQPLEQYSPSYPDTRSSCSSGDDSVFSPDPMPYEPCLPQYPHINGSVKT
# Chain of FGFR2 (UP) (P21802 22-821): as above
# Chain of FGFR3 (UP) (P22607 23-806): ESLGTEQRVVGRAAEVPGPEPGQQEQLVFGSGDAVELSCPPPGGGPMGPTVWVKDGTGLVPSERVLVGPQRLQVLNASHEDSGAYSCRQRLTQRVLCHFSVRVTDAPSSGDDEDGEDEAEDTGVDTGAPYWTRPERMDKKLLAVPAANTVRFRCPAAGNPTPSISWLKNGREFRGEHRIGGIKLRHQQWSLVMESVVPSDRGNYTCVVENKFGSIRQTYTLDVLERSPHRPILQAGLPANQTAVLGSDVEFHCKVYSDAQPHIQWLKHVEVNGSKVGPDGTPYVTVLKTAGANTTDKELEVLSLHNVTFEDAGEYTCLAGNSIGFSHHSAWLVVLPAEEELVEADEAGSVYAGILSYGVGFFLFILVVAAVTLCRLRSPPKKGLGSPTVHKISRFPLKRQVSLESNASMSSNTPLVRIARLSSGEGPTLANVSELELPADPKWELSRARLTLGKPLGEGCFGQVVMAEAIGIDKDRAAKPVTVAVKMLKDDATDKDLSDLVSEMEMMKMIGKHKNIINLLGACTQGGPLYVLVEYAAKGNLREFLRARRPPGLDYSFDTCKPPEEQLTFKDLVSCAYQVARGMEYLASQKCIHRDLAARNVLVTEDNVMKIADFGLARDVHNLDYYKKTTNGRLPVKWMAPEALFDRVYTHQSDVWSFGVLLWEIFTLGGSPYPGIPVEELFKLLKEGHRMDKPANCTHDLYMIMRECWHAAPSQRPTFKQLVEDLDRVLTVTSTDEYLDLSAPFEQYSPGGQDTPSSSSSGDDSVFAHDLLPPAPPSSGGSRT
Compound,IC50 (ALK2),IC50 (ALK2 (aa 147-end); [1]),IC50 (ALK2 (aa 147-end); [2]),IC50 (FGFR2 (UP)),IC50 (ALK2 (aa 147-end); [3]),"IC50 (FGFR1 (UP); read-out: FGFR1 (UP) IC50, un-phosphorylated enzyme, ATP near or below Km)",IC50 (FGFR1 (UP)),IC50 (FGFR3 (UP)),"IC50 (ALK2 (aa 147-end); ALK2 3 μM IC50, 3 uM ATP)",IC50 (FGFR3 (UP); [4]),IC50 (FGFR2 (P); read-out: FGFR2 (P) IC50),"IC50 (ALK2 (aa 147-end); ALK2 100 μM IC50, 100 uM ATP)",IC50 (RT112 cells),IC50 (FGFR2 (P); FGFR2 (P) IC50 (nM))
"COC(=O)N1C[C@@H](C)N(c2ncc3[nH]nc(-c4ccc(N5CCN(C6CCOCC6)CC5)cc4)c3n2)[C@@H](C)C1 [Example 30, Methyl (3R,5S)-3,5-dimethyl-4-(3-(4-(4-(tetrahydro-2H-pyran-4-yl)piperazin-1-yl)phenyl)-1H-pyrazolo[4,3-d]pyrimidin-5-yl)piperazine-1-carboxylate]",100 to 500 nM,< 100 nM,< 100 nM,100 to 500 nM,–,–,–,–,–,–,–,–,–,–
"COC(=O)N1C[C@@H](C)N(c2ncc3[nH]nc(-c4ccc(N5CCN(C(C)CO)CC5)cc4)c3n2)[C@@H](C)C1 (stereo partly drawn) [Example 29, Methyl (3R,5S)-4-(3-(4-(4-(1-hydroxypropan-2-yl)piperazin-1-yl)phenyl)-1H-pyrazolo[4,3-d]pyrimidin-5-yl)-3,5-dimethylpiperazine-1-carboxylate]",< 100 nM,< 100 nM,< 100 nM,500 to 2000 nM,–,–,–,–,–,–,–,–,–,–
"CN1CC2CCC(C1=O)N2c1ncc2[nH]nc(-c3cnn(Cc4ccncc4)c3)c2n1 (stereo not drawn) [Example 59, 3-Methyl-8-(3-(1-(pyridin-4-ylmethyl)-1H-pyrazol-4-yl)-1H-pyrazolo[4,3-d]pyrimidin-5-yl)-3,8-diazabicyclo[3.2.1]octan-2-one]",–,–,–,–,–,–,100 to 500 nM,–,500 to 2000 nM,< 100 nM,< 100 nM,500 to 2000 nM,500 to 2000 nM,–
"Cn1cc(-c2n[nH]c3cnc(N4C5CCC4C(=O)N(CCF)C5)nc23)cn1 (stereo not drawn) [Example 51, 3-(2-Fluoroethyl)-8-(3-(1-methyl-1H-pyrazol-4-yl)-1H-pyrazolo[4,3-d]pyrimidin-5-yl)-3,8-diazabicyclo[3.2.1]octan-2-one]",–,–,–,–,–,–,100 to 500 nM,–,100 to 500 nM,< 100 nM,–,500 to 2000 nM,500 to 2000 nM,100 to 500 nM
"COC(=O)N1C[C@@H](C)N(c2ncc3[nH]nc(-c4ccc(N5CCN(C(C)(C)C(=O)O)CC5)cc4)c3n2)[C@@H](C)C1 [Example 31, 2-(4-(4-(5-((2R,6S)-4-(Methoxycarbonyl)-2,6-dimethylpiperazin-1-yl)-1H-pyrazolo[4,3-d]pyrimidin-3-yl)phenyl)piperazin-1-yl)-2-methylpropanoic acid]",< 100 nM,< 100 nM,< 100 nM,100 to 500 nM,–,–,–,–,–,–,–,–,–,–

# Second part, led by results:
IC50 (ALK2),IC50 (ALK2 (aa 147-end); [1]),IC50 (ALK2 (aa 147-end); [2]),IC50 (FGFR2 (UP)),IC50 (ALK2 (aa 147-end); [3]),"IC50 (FGFR1 (UP); read-out: FGFR1 (UP) IC50, un-phosphorylated enzyme, ATP near or below Km)",IC50 (FGFR1 (UP)),IC50 (FGFR3 (UP)),Compound,"IC50 (ALK2 (aa 147-end); ALK2 3 μM IC50, 3 uM ATP)",IC50 (FGFR3 (UP); [4]),IC50 (FGFR2 (P); read-out: FGFR2 (P) IC50),"IC50 (ALK2 (aa 147-end); ALK2 100 μM IC50, 100 uM ATP)",IC50 (RT112 cells),IC50 (FGFR2 (P); FGFR2 (P) IC50 (nM))
500 to 2000 nM,–,–,500 to 2000 nM,> 2000 nM,> 2000 nM,–,–,"COC(=O)N1C[C@@H](C)N(c2ncc3[nH]nc(-c4ccc(N5CCC(O)CC5)cc4)c3n2)[C@@H](C)C1 [Example 34, Methyl (3R,5S)-4-(3-(4-(4-hydroxypiperidin-1-yl)phenyl)-1H-pyrazolo[4,3-d]pyrimidin-5-yl)-3,5-dimethylpiperazine-1-carboxylate]",100 to 500 nM,–,–,–,–,–
–,–,–,–,–,–,100 to 500 nM,–,"Cn1cc(-c2n[nH]c3cnc(N4CCc5cn[nH]c5C4)nc23)cn1 [Example 44, 3-(1-Methyl-1H-pyrazol-4-yl)-5-(1,4,5,7-tetrahydro-6H-pyrazolo[3,4-c]pyridin-6-yl)-1H-pyrazolo[4,3-d]pyrimidine]",500 to 2000 nM,< 100 nM,< 100 nM,500 to 2000 nM,500 to 2000 nM,–
< 100 nM,< 100 nM,< 100 nM,100 to 500 nM,–,–,500 to 2000 nM,–,"COC(=O)N1C[C@@H](C)N(c2ncc3[nH]nc(-c4ccc(C5CCN(CCO)C5)cc4)c3n2)[C@@H](C)C1 (stereo partly drawn) [Example 28, Methyl (3R,5S)-4-(3-(4-(1-(2-hydroxyethyl)pyrrolidin-3-yl)phenyl)-1H-pyrazolo[4,3-d]pyrimidin-5-yl)-3,5-dimethylpiperazine-1-carboxylate]",–,–,–,–,–,–
–,< 100 nM,–,100 to 500 nM,> 2000 nM,–,500 to 2000 nM,100 to 500 nM,"CNC(=O)c1ccc(-c2n[nH]c3cnc(N4[C@H](C)CN(C(=O)OC)C[C@@H]4C)nc23)cc1 [Example 26, Methyl (3R,5S)-3,5-dimethyl-4-(3-(4-(methylcarbamoyl)phenyl)-1H-pyrazolo[4,3-d]pyrimidin-5-yl)piperazine-1-carboxylate]",–,–,–,–,–,–
